The target in one assay is T1, FLT3 (Homo sapiens, UniProt P36888).
T1 construct: purchased Reaction Biology Corporation
T1 sequence (P36888 27-993): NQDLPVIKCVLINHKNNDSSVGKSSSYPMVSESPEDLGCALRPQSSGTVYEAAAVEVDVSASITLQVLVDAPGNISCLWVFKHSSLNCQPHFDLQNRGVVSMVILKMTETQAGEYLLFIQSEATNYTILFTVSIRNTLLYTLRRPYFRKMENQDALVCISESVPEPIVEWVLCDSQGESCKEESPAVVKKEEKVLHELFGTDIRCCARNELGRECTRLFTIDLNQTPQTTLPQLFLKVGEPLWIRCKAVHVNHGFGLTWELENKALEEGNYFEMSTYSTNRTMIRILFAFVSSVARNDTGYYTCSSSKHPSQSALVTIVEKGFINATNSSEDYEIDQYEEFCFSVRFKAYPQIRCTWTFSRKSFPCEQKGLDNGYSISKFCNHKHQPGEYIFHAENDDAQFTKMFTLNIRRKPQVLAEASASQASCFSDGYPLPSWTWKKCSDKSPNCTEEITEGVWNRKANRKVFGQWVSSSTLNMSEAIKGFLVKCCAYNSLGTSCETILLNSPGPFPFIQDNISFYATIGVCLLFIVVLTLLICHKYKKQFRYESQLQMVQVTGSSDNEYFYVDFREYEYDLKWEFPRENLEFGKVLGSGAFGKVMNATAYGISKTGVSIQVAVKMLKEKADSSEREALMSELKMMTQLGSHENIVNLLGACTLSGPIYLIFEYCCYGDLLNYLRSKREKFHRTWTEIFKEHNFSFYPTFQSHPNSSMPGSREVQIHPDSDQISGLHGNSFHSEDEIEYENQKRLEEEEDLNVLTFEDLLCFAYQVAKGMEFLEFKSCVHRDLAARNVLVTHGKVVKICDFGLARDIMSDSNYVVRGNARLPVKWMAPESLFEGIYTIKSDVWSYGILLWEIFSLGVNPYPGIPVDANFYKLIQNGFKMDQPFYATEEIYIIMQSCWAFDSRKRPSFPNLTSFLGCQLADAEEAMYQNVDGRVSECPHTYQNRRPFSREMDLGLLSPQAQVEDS
Put plainly: 375-member kinase panel. Type of assay: biochemical. The settings on record: Run 1, Run 2; for % enzyme activity: 1 μM; for remaining activity at 1 µM: read-out: % enzyme activity, 1 μM.

The target in a further assay is HIPK3 (Homo sapiens, UniProt Q9H422). The settings on record: 1 μM; Run 1, Run 2.
Another assay concerns the target MSK1/RPS6KA5 (Homo sapiens, UniProt O75582). The settings on record: 1 μM; Run 1, Run 2.
For the next assay, the target named is T2, PKCzeta (Homo sapiens, UniProt Q05513).
T2 sequence (Q05513 1-592): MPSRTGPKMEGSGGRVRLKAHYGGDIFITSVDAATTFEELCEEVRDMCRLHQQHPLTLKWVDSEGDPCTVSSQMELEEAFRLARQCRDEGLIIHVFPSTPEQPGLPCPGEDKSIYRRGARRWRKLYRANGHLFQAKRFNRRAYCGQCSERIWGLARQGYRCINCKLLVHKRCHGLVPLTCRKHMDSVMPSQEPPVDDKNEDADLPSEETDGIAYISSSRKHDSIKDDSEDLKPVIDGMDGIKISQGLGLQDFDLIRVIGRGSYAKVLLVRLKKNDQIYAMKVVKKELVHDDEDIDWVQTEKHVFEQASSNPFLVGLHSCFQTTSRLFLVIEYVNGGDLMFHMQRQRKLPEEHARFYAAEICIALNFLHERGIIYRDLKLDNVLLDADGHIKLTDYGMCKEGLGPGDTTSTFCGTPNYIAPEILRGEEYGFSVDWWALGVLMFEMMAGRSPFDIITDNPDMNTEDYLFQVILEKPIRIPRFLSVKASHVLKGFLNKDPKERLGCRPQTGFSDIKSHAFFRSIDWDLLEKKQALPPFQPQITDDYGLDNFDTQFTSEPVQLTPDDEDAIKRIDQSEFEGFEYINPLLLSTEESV
Conditions: 1 μM; Run 1, Run 2.

The next assay addresses RSK4 (Homo sapiens, UniProt Q9UK32). The settings on record: 1 μM; Run 1, Run 2.
The target of another assay is WNK2 (Homo sapiens, UniProt Q9Y3S1). Conditions: 1 μM; Run 1, Run 2.
The target in the next assay is CDK1/cyclin A (Homo sapiens, UniProt P06493). Put plainly: biochemical. Conditions: read-out: % enzyme activity, 1 μM; Run 1, Run 2.
Another assay concerns the target LIMK2 (Homo sapiens, UniProt P53671). Nature of the assay: biochemical. The settings on record: read-out: % enzyme activity, 1 μM; Run 1, Run 2.
In another assay the target is MEK1 (Homo sapiens, UniProt Q02750). Nature of the assay: biochemical. Conditions: read-out: % enzyme activity, 1 μM; Run 1, Run 2.
In a further assay the target is T3, MEKK3 (Homo sapiens, UniProt Q99759).
T3 sequence (Q99759 1-626): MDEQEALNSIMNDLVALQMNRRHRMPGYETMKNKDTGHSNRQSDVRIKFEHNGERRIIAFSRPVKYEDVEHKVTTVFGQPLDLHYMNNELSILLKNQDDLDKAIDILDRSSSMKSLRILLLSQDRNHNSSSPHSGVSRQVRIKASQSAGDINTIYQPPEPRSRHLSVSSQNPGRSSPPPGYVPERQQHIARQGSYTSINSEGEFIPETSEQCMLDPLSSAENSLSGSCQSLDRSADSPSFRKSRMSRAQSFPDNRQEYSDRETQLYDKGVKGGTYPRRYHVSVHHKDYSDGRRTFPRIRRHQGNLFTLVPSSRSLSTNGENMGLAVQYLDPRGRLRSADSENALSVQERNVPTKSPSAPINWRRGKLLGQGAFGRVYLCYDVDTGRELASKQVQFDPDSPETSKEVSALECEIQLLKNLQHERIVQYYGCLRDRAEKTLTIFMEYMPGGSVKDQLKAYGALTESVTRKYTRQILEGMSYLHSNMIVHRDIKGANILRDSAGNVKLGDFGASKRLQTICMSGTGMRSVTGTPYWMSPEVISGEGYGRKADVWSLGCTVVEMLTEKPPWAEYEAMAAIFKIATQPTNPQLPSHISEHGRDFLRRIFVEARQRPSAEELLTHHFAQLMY
Nature of the assay: biochemical. Conditions: read-out: % enzyme activity, 1 μM; Run 1, Run 2.

A further assay concerns the target MST4 (Homo sapiens, UniProt Q9P289). Put plainly: biochemical. The settings on record: read-out: % enzyme activity, 1 μM; Run 1, Run 2.
The target in a further assay is p70S6K/RPS6KB1 (Homo sapiens, UniProt P23443). Put plainly: biochemical. Conditions: read-out: % enzyme activity, 1 μM; Run 1, Run 2.
In another assay the target is PIM1 (Homo sapiens, UniProt P11309). Put plainly: biochemical. The settings on record: read-out: % enzyme activity, 1 μM; Run 1, Run 2.
Chain of PIM1 (P11309 whole entry): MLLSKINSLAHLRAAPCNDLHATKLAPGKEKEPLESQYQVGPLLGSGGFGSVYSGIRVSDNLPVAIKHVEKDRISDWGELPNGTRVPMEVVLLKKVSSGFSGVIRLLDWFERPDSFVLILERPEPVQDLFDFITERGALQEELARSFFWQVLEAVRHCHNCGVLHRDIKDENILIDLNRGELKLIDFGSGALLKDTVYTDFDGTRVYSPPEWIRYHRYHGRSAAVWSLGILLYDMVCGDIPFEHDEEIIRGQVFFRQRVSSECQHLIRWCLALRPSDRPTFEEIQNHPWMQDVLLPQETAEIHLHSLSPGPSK

Chain of RSK4 (Q9UK32 whole entry): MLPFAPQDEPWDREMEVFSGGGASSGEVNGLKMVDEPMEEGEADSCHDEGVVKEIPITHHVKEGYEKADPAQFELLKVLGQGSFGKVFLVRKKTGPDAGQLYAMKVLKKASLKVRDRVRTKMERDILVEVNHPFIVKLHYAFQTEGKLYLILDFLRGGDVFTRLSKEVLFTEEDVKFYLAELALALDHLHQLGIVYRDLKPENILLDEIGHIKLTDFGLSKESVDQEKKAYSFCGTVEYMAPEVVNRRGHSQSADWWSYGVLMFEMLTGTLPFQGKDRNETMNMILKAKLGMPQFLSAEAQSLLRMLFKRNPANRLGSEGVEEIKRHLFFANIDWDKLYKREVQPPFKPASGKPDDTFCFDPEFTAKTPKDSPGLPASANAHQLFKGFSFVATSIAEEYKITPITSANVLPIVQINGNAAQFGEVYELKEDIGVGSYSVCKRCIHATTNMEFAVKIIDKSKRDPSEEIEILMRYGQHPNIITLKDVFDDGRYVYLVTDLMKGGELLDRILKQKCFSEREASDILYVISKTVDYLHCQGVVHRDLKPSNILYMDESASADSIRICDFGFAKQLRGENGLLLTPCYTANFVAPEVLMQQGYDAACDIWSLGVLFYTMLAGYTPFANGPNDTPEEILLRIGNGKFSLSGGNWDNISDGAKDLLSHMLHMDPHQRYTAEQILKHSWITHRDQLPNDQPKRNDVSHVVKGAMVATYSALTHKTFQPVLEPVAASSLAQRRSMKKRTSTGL
Chain of WNK2 (Q9Y3S1 whole entry, species assumed): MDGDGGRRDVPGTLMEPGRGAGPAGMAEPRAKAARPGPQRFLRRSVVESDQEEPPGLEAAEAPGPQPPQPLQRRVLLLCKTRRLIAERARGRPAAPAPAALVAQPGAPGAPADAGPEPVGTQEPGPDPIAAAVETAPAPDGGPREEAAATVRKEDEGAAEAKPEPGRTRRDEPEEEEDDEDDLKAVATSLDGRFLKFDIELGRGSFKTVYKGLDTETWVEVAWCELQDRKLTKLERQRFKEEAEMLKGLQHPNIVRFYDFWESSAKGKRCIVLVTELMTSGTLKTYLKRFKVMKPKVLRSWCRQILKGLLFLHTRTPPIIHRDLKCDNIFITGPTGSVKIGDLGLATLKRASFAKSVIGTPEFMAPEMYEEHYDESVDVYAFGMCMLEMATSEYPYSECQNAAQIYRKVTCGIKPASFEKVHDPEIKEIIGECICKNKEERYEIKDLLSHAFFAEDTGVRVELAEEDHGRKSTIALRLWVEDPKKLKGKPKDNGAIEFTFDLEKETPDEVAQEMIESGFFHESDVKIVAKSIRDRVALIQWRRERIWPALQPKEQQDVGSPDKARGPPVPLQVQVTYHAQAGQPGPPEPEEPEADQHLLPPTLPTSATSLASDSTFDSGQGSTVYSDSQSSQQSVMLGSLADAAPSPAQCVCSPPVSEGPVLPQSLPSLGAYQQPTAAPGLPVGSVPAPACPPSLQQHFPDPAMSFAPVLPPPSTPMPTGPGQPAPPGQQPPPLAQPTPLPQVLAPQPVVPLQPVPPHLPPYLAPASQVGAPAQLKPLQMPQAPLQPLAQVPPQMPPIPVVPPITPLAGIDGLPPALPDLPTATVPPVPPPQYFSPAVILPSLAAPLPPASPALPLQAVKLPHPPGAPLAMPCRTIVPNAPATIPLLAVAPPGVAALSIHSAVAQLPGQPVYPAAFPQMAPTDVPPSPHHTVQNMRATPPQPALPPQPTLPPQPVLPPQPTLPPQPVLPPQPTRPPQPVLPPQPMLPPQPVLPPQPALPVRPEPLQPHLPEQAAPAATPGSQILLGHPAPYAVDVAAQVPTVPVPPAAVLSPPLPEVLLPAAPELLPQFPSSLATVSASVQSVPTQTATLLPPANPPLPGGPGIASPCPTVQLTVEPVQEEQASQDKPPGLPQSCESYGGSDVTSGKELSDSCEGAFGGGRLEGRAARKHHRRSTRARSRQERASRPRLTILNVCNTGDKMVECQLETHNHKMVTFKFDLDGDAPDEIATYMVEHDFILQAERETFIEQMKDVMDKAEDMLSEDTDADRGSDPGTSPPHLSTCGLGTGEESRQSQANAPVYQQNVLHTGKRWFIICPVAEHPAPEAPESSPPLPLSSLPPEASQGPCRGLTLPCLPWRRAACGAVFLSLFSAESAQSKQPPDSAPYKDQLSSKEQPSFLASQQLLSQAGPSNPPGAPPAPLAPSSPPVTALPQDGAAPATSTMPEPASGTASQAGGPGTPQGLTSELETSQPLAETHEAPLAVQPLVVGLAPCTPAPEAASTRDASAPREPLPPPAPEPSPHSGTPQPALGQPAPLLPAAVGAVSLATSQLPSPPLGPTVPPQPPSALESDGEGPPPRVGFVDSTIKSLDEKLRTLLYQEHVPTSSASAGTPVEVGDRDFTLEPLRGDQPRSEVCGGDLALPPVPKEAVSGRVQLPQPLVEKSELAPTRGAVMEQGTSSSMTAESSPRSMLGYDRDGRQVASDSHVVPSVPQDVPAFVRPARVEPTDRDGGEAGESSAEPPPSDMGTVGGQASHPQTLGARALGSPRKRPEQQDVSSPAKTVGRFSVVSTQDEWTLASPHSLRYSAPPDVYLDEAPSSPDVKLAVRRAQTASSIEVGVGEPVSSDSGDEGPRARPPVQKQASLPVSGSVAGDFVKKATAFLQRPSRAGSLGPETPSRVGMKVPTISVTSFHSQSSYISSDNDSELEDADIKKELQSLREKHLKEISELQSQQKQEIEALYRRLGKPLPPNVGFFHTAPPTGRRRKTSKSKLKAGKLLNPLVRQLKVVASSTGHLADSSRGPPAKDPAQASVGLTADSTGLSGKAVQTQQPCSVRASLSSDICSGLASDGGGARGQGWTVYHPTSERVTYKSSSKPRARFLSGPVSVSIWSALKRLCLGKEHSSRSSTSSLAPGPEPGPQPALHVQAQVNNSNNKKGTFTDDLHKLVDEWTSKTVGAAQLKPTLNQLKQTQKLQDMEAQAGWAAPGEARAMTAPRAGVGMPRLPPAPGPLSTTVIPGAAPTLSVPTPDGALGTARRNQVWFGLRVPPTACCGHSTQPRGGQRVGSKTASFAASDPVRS
Chain of CDK1/cyclin A (P20248 whole entry): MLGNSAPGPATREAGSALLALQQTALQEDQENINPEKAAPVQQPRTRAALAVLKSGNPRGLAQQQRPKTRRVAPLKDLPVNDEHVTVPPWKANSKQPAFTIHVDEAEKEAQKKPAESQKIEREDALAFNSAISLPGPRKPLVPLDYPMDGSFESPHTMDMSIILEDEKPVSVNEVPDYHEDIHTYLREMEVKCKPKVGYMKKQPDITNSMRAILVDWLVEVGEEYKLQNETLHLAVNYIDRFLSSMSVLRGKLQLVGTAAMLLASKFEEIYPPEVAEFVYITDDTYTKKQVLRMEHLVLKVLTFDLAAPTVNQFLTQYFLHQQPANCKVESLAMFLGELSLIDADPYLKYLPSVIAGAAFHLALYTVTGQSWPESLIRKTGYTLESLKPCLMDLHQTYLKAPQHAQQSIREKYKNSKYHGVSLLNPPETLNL
Chain of CDK1/cyclin A (P06493 whole entry): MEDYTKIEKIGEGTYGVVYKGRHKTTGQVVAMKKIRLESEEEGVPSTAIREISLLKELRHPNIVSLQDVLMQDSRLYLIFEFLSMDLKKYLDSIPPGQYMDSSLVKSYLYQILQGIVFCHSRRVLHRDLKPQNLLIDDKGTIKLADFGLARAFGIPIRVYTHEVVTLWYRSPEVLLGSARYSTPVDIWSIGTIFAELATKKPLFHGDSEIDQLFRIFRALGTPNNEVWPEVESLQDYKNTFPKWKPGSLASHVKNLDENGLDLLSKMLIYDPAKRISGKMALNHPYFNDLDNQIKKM
Chain of MST4 (Q9P289 whole entry): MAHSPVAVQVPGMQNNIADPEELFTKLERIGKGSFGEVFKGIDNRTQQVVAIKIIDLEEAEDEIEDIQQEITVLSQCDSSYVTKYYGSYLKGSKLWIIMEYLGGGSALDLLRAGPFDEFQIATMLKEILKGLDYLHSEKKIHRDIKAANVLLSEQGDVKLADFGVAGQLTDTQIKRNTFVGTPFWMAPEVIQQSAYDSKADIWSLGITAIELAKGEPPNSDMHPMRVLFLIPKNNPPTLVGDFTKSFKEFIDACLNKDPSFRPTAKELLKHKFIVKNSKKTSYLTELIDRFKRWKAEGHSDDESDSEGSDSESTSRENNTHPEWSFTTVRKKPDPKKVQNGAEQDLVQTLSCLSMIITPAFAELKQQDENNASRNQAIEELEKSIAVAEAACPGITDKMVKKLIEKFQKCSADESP
Chain of MEK1 (Q02750 whole entry): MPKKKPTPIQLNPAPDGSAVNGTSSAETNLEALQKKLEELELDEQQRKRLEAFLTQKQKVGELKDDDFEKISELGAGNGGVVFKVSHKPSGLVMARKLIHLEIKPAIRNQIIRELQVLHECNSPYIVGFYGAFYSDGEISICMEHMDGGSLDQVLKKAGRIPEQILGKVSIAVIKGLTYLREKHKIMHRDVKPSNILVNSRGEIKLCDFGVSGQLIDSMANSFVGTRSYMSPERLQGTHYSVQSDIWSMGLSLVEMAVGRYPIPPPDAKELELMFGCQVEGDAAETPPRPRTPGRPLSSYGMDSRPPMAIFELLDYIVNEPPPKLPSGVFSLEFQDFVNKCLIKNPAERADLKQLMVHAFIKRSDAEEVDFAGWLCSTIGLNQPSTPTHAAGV

For the molecule `COc1cc(-c2cncc(-c3ccc(N4CCN(C)CC4)cc3)c2C)cc(F)c1C(N)=O` [Compound 26a, 2-Fluoro-6-methoxy-4-(4-methyl-5-(4-(4-methylpiperazin-1-yl)phenyl)pyridin-3-yl)benzamide], the “% enzyme activity” value on FLT3 is given as 76.15%; at HIPK3, 97.73%; on MSK1/RPS6KA5 it was 82.15%; at PKCzeta, 90.40%; on RSK4 it was 95.64%; on WNK2, 95.09%. Further, the remaining activity at 1 µM at FLT3 is 77.1%; on CDK1/cyclin A, 94.7%; at LIMK2 it was 102%; on MEK1, 97.5%; at MEKK3 it was 98%; at MST4, 86.9%. Further, the figures for the remaining activity at 1 µM at p70S6K/RPS6KB1 and on PIM1 were 97.8% and 100%, respectively.
With `COc1cc(-c2cncc(-c3ccc(N4C[C@@H](C)N(C)[C@@H](C)C4)cc3)c2C)cc(F)c1C(N)=O` [Compound 26c, 2-Fluoro-6-methoxy-4-(4-methyl-5-(4-((3R,5S)-3,4,5-trimethylpiperazin-1-yl)phenyl)pyridin-3-yl)benzamide], the “% enzyme activity” value at FLT3 was 81.48%; at HIPK3, 89.08%; at MSK1/RPS6KA5 it was 89.44%; at PKCzeta, 91.43%; at RSK4 it was 94.61%; at WNK2 it was 93.64%. In addition, the remaining activity at 1 µM stood at 84.3% at FLT3; 90.8% at CDK1/cyclin A; 97.8% on LIMK2; 95.1% on MEK1; 109% at MEKK3; 95% on MST4. Further, the remaining activity at 1 µM on p70S6K/RPS6KB1 turned out to be 100%; at PIM1, 95.2%.

The values above are taken from paper PMC8213057, “Targeting ALK2: An Open Science Approach to Developing Therapeutics for the Treatment of Diffuse Intrinsic Pontine Glioma” (Journal of Medicinal Chemistry, 2020).
